Experimental data from ChEMBL document CHEMBL1201862, “PubChem BioAssay data set” (2004).
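96-well plates; 48 h exposure; 5 concentrations. Endpoints by linear interpolation between flanking doses. Not reached: highest tested concentration assigned. Here, GI50 denotes the concentration required for 50% inhibition of growth.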 The source made the active and inactive calls. Rule as the data show it: active = GI50 up to about 1.1 µM and inactive = higher.

Tests used:
Experiment in all cases: DTP human tumour cell line panel, 48 h
[1] = tested on: 786-0
[2] = tested on: ACHN
[3] = tested on: COLO 205
[4] = tested on: EKVX
[5] = tested on: HL-60
[6] = tested on: HOP-92
[7] = tested on: KM12
[8] = tested on: M14
[9] = tested on: NCI-H460
[10] = tested on: OVCAR-3
[11] = tested on: OVCAR-4
[12] = tested on: OVCAR-5
[13] = tested on: RXF 393
[14] = tested on: SK-MEL-2
[15] = tested on: SNB-19
[16] = tested on: SW-620
[17] = tested on: UACC-62

For `COC(=O)c1c/c(=N\NC(=O)CC(=O)Nc2ccc(C)cc2)c2ccccc2o1`, the GI50 [1] was > 100 µM (inactive), the GI50 [2] was > 100 µM (inactive) and the GI50 [3] was > 100 µM (inactive). For the same compound, the GI50 [4] was > 100 µM (inactive), the GI50 [5] was > 100 µM (inactive) and the GI50 [6] was > 100 µM (inactive). The GI50 [7] was > 100 µM (inactive), the GI50 [8] was > 100 µM (inactive) and the GI50 [9] was > 100 µM (inactive). For the same compound, the GI50 [10] was > 100 µM (inactive), the GI50 [11] was > 100 µM (inactive) and the GI50 [12] was > 100 µM (inactive). For the same compound, the GI50 [13] was > 100 µM (inactive), the GI50 [14] was > 100 µM (inactive) and the GI50 [15] was > 100 µM (inactive). The GI50 [16] was > 100 µM (inactive) and the GI50 [17] was > 100 µM (inactive).
With `O=C1Nc2cc(Cl)ccc2N=CC1NC(=O)C(c1ccccc1)c1ccccc1Cl` (centres undefined) the GI50 [1] was > 100 µM (inactive), the GI50 [2] was > 100 µM (inactive) and the GI50 [3] was > 100 µM (inactive). For the same compound, the GI50 [4] was > 100 µM (inactive), the GI50 [5] was > 100 µM (inactive) and the GI50 [6] was > 100 µM (inactive). The GI50 [7] was > 100 µM (inactive), the GI50 [8] was > 100 µM (inactive) and the GI50 [9] was 57.9 µM (inactive). For the same compound, the GI50 [10] was > 100 µM (inactive), the GI50 [11] was > 100 µM (inactive) and the GI50 [12] was > 100 µM (inactive). For the same compound, the GI50 [13] was > 100 µM (inactive), the GI50 [14] was > 100 µM (inactive) and the GI50 [15] was > 100 µM (inactive). For the same compound, the GI50 [16] was > 100 µM (inactive) and the GI50 [17] was > 100 µM (inactive).
`CC1NOC(=O)C1/N=N/c1ccc(Cl)cc1Cl` (centres undefined) was tested, and the GI50 [1] was 18.7 µM (inactive), the GI50 [2] was 21.4 µM (inactive) and the GI50 [3] was 20 µM (inactive). The GI50 [4] was 24.6 µM (inactive), the GI50 [5] was 16 µM (inactive) and the GI50 [6] was 19.8 µM (inactive). The GI50 [7] was 15.1 µM (inactive), the GI50 [8] was 21 µM (inactive) and the GI50 [9] was 24.7 µM (inactive). For the same compound, the GI50 [10] was 16.4 µM (inactive), the GI50 [11] was 21.6 µM (inactive) and the GI50 [12] was 69.7 µM (inactive). For the same compound, the GI50 [13] was 20.7 µM (inactive), the GI50 [14] was 23.8 µM (inactive) and the GI50 [15] was 22.6 µM (inactive). The GI50 [16] was 7.98 µM (inactive) and the GI50 [17] was 30.7 µM (inactive).
`N/N=C(\CC1OC(=O)c2ccccc21)c1ccco1` (centres undefined) was tested, and the GI50 [1] was < 0.01 µM (active), the GI50 [2] was > 100 µM (inactive) and the GI50 [3] was > 100 µM (inactive). For the same compound, the GI50 [4] was > 100 µM (inactive), the GI50 [5] was > 100 µM (inactive) and the GI50 [6] was > 100 µM (inactive). The GI50 [7] was > 100 µM (inactive), the GI50 [8] was > 100 µM (inactive) and the GI50 [9] was > 100 µM (inactive). For the same compound, the GI50 [10] was > 100 µM (inactive), the GI50 [11] was > 100 µM (inactive) and the GI50 [12] was > 100 µM (inactive). For the same compound, the GI50 [13] was > 100 µM (inactive), the GI50 [14] was > 100 µM (inactive) and the GI50 [15] was > 100 µM (inactive). For the same compound, the GI50 [16] was > 100 µM (inactive) and the GI50 [17] was > 100 µM (inactive).
`CC(C)(C)c1cc(Oc2ccc(C#N)c(C#N)c2)cc(C(C)(C)C)c1` was tested, and the GI50 [1] was 90.2 µM (inactive), the GI50 [2] was > 100 µM (inactive) and the GI50 [3] was > 100 µM (inactive). The GI50 [4] was > 100 µM (inactive), the GI50 [5] was > 100 µM (inactive) and the GI50 [6] was > 100 µM (inactive). The GI50 [7] was > 100 µM (inactive), the GI50 [8] was > 100 µM (inactive) and the GI50 [9] was 39.9 µM (inactive). For the same compound, the GI50 [10] was > 100 µM (inactive), the GI50 [11] was > 100 µM (inactive) and the GI50 [12] was > 100 µM (inactive). For the same compound, the GI50 [13] was > 100 µM (inactive), the GI50 [14] was > 100 µM (inactive) and the GI50 [15] was > 100 µM (inactive). The GI50 [17] was > 100 µM (inactive).
In the case of `Cc1cc(=O)oc2cc(OCc3nc4ccccc4c(=O)n3-c3ccccc3)ccc12`, the GI50 [1] is reported as 38.4 µM (inactive), the GI50 [2] is reported as > 100 µM (inactive) and the GI50 [3] is reported as > 100 µM (inactive). For the same compound, the GI50 [4] was > 100 µM (inactive), the GI50 [5] was > 100 µM (inactive) and the GI50 [6] was 28.1 µM (inactive). The GI50 [7] was > 100 µM (inactive), the GI50 [8] was > 100 µM (inactive) and the GI50 [9] was > 100 µM (inactive). The GI50 [10] was > 100 µM (inactive), the GI50 [11] was > 100 µM (inactive) and the GI50 [12] was > 100 µM (inactive). The GI50 [13] was 34 µM (inactive), the GI50 [14] was > 100 µM (inactive) and the GI50 [15] was 27.5 µM (inactive). The GI50 [16] was > 100 µM (inactive) and the GI50 [17] was > 100 µM (inactive).
In the case of `CC(C)C1CO[C@]2(C)CCC(=O)N12` (some centres undefined), the GI50 [1] is reported as > 100 µM (inactive), the GI50 [2] is reported as > 100 µM (inactive) and the GI50 [3] is reported as > 100 µM (inactive). The GI50 [4] was > 100 µM (inactive), the GI50 [5] was > 100 µM (inactive) and the GI50 [6] was > 100 µM (inactive). The GI50 [7] was > 100 µM (inactive), the GI50 [8] was > 100 µM (inactive) and the GI50 [9] was > 100 µM (inactive). For the same compound, the GI50 [10] was > 100 µM (inactive), the GI50 [11] was > 100 µM (inactive) and the GI50 [13] was > 100 µM (inactive). The GI50 [14] was > 100 µM (inactive), the GI50 [15] was > 100 µM (inactive) and the GI50 [16] was > 100 µM (inactive). The GI50 [17] was > 100 µM (inactive).
For `O=C(CO[N+](=O)[O-])OCC(=O)c1ccccc1`, the GI50 [1] was > 100 µM (inactive), the GI50 [2] was > 100 µM (inactive) and the GI50 [3] was > 100 µM (inactive). For the same compound, the GI50 [4] was > 100 µM (inactive), the GI50 [5] was > 100 µM (inactive) and the GI50 [6] was > 100 µM (inactive). For the same compound, the GI50 [7] was > 100 µM (inactive), the GI50 [8] was > 100 µM (inactive) and the GI50 [9] was > 100 µM (inactive). The GI50 [10] was > 100 µM (inactive), the GI50 [11] was > 100 µM (inactive) and the GI50 [12] was > 100 µM (inactive). For the same compound, the GI50 [13] was > 100 µM (inactive), the GI50 [14] was > 100 µM (inactive) and the GI50 [15] was > 100 µM (inactive). For the same compound, the GI50 [16] was > 100 µM (inactive).
For `Cc1ccc(C)c(NC(=O)c2cc(-c3ccc([N+](=O)[O-])cc3)nc(N)n2)c1`, the GI50 [1] was > 100 µM (inactive), the GI50 [2] was > 100 µM (inactive) and the GI50 [3] was > 100 µM (inactive). For the same compound, the GI50 [4] was > 100 µM (inactive), the GI50 [5] was > 100 µM (inactive) and the GI50 [6] was > 100 µM (inactive). The GI50 [7] was > 100 µM (inactive), the GI50 [8] was > 100 µM (inactive) and the GI50 [9] was > 100 µM (inactive). For the same compound, the GI50 [10] was > 100 µM (inactive), the GI50 [11] was > 100 µM (inactive) and the GI50 [12] was > 100 µM (inactive). The GI50 [13] was > 100 µM (inactive), the GI50 [14] was > 100 µM (inactive) and the GI50 [15] was > 100 µM (inactive). The GI50 [16] was > 100 µM (inactive) and the GI50 [17] was > 100 µM (inactive).
`Clc1ccc(-n2nnc(C3=NCCCN3)c2-c2ccccc2)cc1` was tested, and the GI50 [1] was > 100 µM (inactive), the GI50 [2] was > 100 µM (inactive) and the GI50 [3] was 67.3 µM (inactive). The GI50 [4] was > 100 µM (inactive), the GI50 [5] was > 100 µM (inactive) and the GI50 [6] was > 100 µM (inactive). The GI50 [7] was > 100 µM (inactive), the GI50 [8] was > 100 µM (inactive) and the GI50 [9] was > 100 µM (inactive). The GI50 [10] was > 100 µM (inactive), the GI50 [11] was > 100 µM (inactive) and the GI50 [12] was > 100 µM (inactive). For the same compound, the GI50 [13] was > 100 µM (inactive), the GI50 [14] was > 100 µM (inactive) and the GI50 [15] was > 100 µM (inactive). The GI50 [16] was > 100 µM (inactive) and the GI50 [17] was > 100 µM (inactive).
For `COc1cccc(-c2cc(C(=O)Nc3ccc(Cl)cc3)nc(N)n2)c1`, the GI50 [1] was 55 µM (inactive), the GI50 [2] was > 100 µM (inactive) and the GI50 [3] was 21.4 µM (inactive). The GI50 [4] was > 100 µM (inactive), the GI50 [5] was 32.7 µM (inactive) and the GI50 [6] was > 100 µM (inactive). For the same compound, the GI50 [7] was 43.7 µM (inactive), the GI50 [8] was 37.3 µM (inactive) and the GI50 [9] was 36.8 µM (inactive). For the same compound, the GI50 [10] was 35.3 µM (inactive), the GI50 [11] was > 100 µM (inactive) and the GI50 [12] was > 100 µM (inactive). For the same compound, the GI50 [13] was 39.4 µM (inactive), the GI50 [14] was > 100 µM (inactive) and the GI50 [15] was 70.8 µM (inactive). The GI50 [16] was 36.7 µM (inactive) and the GI50 [17] was 42.6 µM (inactive).
With `CCOC(=O)C1S/C(=N\c2ccc(Cl)cc2)N=C1C` (centres undefined) the GI50 [1] was 16.9 µM (inactive), the GI50 [2] was 20.5 µM (inactive) and the GI50 [3] was 17.5 µM (inactive). For the same compound, the GI50 [4] was 21.4 µM (inactive), the GI50 [5] was 23 µM (inactive) and the GI50 [6] was 15.9 µM (inactive). For the same compound, the GI50 [7] was 18.2 µM (inactive), the GI50 [9] was 23.6 µM (inactive) and the GI50 [10] was 23.6 µM (inactive). The GI50 [11] was 24.7 µM (inactive), the GI50 [12] was 22.1 µM (inactive) and the GI50 [13] was 16.6 µM (inactive). The GI50 [14] was 22.6 µM (inactive), the GI50 [15] was 19.2 µM (inactive) and the GI50 [16] was 19.9 µM (inactive).
